Measurements as given in patent US10947242B2, “[1,2,4]triazolo[1,5and#8208;A]pyrimidine compounds as PDE2 inhibitors” (Janssen Pharmaceutica NV, priority 2016, dated 2021).
Like-named read-outs stand apart in the source and are kept apart here.

Assays:
[1] = target: T1, Human recombinant PDE2A (hPDE2A) (Homo sapiens, UniProt O00408); test: In vitro assay PDE2A (SPA, 3H-cGMP hydrolysis); type: biochemical; settings: for Emax: read-out: hPDE2A Emax
T1 construct: His tag (inferred from metal chelate purification); made in house; host or cells: Sf9 insect cells (baculovirus)
T1 sequence (O00408 whole entry): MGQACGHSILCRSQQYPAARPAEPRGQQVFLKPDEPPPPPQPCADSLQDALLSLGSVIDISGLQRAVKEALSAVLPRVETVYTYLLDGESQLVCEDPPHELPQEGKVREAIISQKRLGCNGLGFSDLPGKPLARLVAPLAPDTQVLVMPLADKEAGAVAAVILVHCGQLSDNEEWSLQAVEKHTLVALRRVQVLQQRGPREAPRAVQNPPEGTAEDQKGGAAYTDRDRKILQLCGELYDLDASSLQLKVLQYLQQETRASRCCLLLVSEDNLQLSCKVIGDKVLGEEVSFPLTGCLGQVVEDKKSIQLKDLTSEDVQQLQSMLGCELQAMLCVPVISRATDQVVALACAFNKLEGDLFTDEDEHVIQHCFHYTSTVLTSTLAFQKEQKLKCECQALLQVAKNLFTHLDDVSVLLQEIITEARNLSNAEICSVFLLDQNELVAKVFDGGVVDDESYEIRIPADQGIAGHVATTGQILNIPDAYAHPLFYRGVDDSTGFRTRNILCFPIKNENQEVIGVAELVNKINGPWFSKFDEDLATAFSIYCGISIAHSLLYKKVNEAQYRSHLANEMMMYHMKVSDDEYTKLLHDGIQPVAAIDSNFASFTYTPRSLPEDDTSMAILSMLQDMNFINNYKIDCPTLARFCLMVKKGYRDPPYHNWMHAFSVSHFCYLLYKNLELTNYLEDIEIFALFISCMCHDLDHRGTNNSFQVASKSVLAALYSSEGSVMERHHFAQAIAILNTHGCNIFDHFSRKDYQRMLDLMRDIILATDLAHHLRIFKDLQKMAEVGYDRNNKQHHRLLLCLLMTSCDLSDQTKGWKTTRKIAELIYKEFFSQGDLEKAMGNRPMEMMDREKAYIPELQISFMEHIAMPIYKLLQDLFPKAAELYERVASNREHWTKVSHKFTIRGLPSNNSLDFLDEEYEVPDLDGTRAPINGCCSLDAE

[2] = target: T2, Human recombinant PDE3A (hPDE3A) (Homo sapiens, UniProt Q14432); test: In vitro assay PDE3A (SPA, 3H-cAMP hydrolysis); type: biochemical; settings: for IC50: hPDE3B pIC50, read-out: pIC50 (converted); for Emax: read-out: hPDE3B Emax, read-out: Emax;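 as to all read-outs here: the method names PDE3A and the table heading PDE3B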
T2 construct: purchased Scottish Biomedical; host or cells: Sf9 insect cells
T2 sequence (Q14432 whole entry): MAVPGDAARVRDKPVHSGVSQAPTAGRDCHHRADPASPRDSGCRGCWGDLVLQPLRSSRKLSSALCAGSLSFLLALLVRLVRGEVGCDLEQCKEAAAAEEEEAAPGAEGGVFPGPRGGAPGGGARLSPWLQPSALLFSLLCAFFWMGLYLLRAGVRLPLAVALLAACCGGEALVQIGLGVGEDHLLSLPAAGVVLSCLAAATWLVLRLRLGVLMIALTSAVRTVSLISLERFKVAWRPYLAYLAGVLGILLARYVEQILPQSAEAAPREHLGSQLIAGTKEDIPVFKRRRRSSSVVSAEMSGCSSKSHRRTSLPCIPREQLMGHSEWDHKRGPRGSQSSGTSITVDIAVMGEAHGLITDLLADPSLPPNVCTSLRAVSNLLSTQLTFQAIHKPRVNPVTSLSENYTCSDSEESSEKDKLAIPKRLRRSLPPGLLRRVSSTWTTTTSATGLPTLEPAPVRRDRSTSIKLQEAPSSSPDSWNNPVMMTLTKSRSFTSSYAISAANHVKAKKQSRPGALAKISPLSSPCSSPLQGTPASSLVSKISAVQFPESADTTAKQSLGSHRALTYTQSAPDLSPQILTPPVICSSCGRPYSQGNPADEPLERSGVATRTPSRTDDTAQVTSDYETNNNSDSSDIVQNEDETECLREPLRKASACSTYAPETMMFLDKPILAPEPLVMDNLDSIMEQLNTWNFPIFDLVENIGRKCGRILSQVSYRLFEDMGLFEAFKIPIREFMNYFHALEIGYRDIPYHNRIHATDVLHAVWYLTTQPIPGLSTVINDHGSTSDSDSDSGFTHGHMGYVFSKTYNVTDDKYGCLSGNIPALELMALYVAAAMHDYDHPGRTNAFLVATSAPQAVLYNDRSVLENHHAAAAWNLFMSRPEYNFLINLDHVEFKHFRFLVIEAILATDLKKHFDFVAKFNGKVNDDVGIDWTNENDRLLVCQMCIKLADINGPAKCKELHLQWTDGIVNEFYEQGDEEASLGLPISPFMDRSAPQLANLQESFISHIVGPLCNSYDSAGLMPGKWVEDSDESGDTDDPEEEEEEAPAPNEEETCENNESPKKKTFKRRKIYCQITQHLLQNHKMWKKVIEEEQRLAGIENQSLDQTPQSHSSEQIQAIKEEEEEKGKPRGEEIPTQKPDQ
Summary of the method: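 Radiometric SPA measuring [3H]-cAMP hydrolysis (0.4 μM cAMP, 2.4 μCi/ml) over 60 min at room temperature, in Tris pH 7.8 buffer with MgCl2 and EGTA, 1% DMSO. Enzyme: recombinant human brain PDE3A expressed in Sf9 cells, used as partially purified lysate. Counts compared with enzyme-free blanks and vehicle controls.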

[3] = target: T3, Human recombinant PDE10A (hPDE10A) (Homo sapiens, UniProt Q9Y233); test: In vitro assay PDE10A, human clone (SPA, 3H-cAMP hydrolysis); type: biochemical; settings: human clone (h), default; for IC50: read-out: hPDE10A2 pIC50 (converted); for Emax: read-out: hPDE10A2 Emax
T3 construct: His tag (inferred from metal chelate purification); made in house; host or cells: Sf9 insect cells (baculovirus)
T3 sequence (Q9Y233 267-1055): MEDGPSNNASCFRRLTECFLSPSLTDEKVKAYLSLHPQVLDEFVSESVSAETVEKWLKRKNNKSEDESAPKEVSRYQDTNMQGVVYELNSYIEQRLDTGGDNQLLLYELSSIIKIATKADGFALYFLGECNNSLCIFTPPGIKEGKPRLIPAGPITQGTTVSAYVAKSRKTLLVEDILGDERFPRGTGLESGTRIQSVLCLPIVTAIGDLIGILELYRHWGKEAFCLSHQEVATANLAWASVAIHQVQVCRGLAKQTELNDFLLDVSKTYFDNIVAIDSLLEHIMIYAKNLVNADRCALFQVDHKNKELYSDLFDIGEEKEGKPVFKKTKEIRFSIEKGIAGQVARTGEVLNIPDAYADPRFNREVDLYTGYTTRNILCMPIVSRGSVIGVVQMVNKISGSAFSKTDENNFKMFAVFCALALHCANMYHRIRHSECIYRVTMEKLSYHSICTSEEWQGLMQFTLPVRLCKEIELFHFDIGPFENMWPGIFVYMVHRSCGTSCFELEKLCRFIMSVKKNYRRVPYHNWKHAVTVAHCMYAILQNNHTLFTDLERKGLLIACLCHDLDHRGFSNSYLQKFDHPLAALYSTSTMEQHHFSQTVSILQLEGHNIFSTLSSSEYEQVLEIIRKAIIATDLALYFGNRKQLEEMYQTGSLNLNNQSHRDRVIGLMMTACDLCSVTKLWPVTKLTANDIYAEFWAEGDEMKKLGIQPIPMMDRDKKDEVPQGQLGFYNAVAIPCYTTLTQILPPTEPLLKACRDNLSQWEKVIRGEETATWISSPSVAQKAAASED
Summary of the method: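 Hydrolysis of 3H-cAMP (60 nM cAMP, 0.008 μCi tracer) proceeded for 60 min at room temperature, with the product detected by SPA bead scintillation counting. The enzyme was hPDE10A from baculovirus-infected Sf9 cells in Tris pH 7.8 buffer with MgCl2 and EGTA, and compounds were at 1% DMSO final. Blanks lacked enzyme.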

[4] = human recombinant PDE2A, 10 μM cGMP substrate, read-out: hPDE2A pIC50 (converted)
[5] = read-out: hPDE2A pIC50 (converted)

Row | SMILES | melting point | IC50 [1, 4] | IC50 [1, 5] | IC50 [3] | Emax ([1]; human recombinant PDE2A) | Emax [1] | IC50 [2] | Emax [2] | Emax [3] | hPDE2A Emax [1] | hPDE2A Emax ([1]; human recombinant PDE2A) | hPDE3B Emax [2] | hPDE10A2 Emax [3] | IC50 ([1]; hPDE2A pIC50) | IC50 ([1]; hPDE2A pIC50, human recombinant PDE2A, 10 μM cGMP substrate)
1 | Cc1cc(C(=O)N2[C@H]3CC[C@H](c4cc(C(F)F)nc5ncnn45)[C@@H]2CC3)cc(C)n1 (racemic) [Compound 31] | 190.16 °C | 2.51 nM | 2.51 nM | 1120 nM |  |  |  |  |  | 100 | 100 | 8 | 84 |  | 
2 | Cc1cc(C)cc(C(=O)N2CCC[C@](C)(c3cc(C(F)F)nc4ncnn34)C2)c1 (single isomer, unassigned) [Compound 206] | 145.73 °C | 1660 nM | 1660 nM | > 10000 nM | 39% | 39% | > 10000 nM | -1% | 16% |  |  |  |  |  | 
3 | Cc1nn(C)cc1C(=O)N1CCC[C@](C)(c2cc(C(F)F)nc3ncnn23)C1 (single isomer, unassigned) [Compound 207] | 173.79 °C | 7940 nM | 7940 nM | > 10000 nM | 21% | 21% | > 10000 nM | 2% | -5% |  |  |  |  |  | 
4 | Cc1ccc(C(=O)N2CCC[C@](C)(c3cc(C(F)F)nc4ncnn34)C2)c(C)n1 (single isomer, unassigned) [Compound 210] | 195.81 °C | 617 nM | 617 nM | > 10000 nM | 56% | 56% | > 10000 nM | 5% | 16% |  |  |  |  |  | 
5 | Cc1cc(C(=O)N2CCC[C@](C)(c3cc(C(F)F)nc4ncnn34)C2)cc(C)n1 (single isomer, unassigned) [Compound 211] | 117.5 °C | > 10000 nM | > 10000 nM | > 10000 nM | 3% | 3% | > 10000 nM | 13% | 10% |  |  |  |  |  | 
6 | Cc1cc(C(=O)N2CC[C@@H](C)[C@H](c3cc(C)nc4ncnn34)C2)cc(C2CC2)n1 [Compound 23] | 169.13 °C |  |  | 7.08 nM |  | 101% | 1050 nM | 90% | 100% |  |  |  |  | 0.468 nM | 0.468 nM

Now from value to compound, other results behind:

Row | melting point | IC50 [1, 4] | IC50 [1, 5] | IC50 [3] | Emax ([1]; human recombinant PDE2A) | Emax [1] | IC50 [2] | Emax [2] | Emax [3] | SMILES | hPDE2A Emax [1] | hPDE2A Emax ([1]; human recombinant PDE2A) | hPDE3B Emax [2] | hPDE10A2 Emax [3] | IC50 ([1]; hPDE2A pIC50) | IC50 ([1]; hPDE2A pIC50, human recombinant PDE2A, 10 μM cGMP substrate)
7 | 220.89 °C |  |  |  |  |  |  |  |  | Cn1ccc2c(F)c(C(=O)N3[C@H]4CC[C@H](c5cc(C(F)F)nc6ncnn56)[C@@H]3CC4)ccc21 |  |  |  |  |  | 
8 | 145.19 °C | 724 nM | 724 nM | > 10000 nM | 57% | 57% | > 10000 nM | 25% | 7% | C[C@]1(c2cc(C(F)F)nc3ncnn23)CCCN(C(=O)c2ccc3occc3c2)C1 (single isomer, unassigned) [Compound 209] |  |  |  |  |  | 
9 | 188.75 °C | 0.977 nM | 0.977 nM | 38 nM | 100% | 100% | 1050 nM | 92% | 99% | C[C@@H]1CCN(C(=O)c2ccc(Cl)c(Cl)c2)C[C@H]1c1cc(C(F)F)nc2ncnn12 [Compound 111] |  |  |  |  |  | 
10 | 179.82 °C | 1.66 nM | 1.66 nM | 74.1 nM | 101% | 101% | 955 nM | 92% | 99% | COc1cc(C(=O)N2CC[C@@H](C)[C@H](c3cc(C(F)F)nc4ncnn34)C2)ccc1C1CC1 [Compound 118] |  |  |  |  |  | 
11 | 229.91 °C | 28.2 nM | 28.2 nM | 1350 nM | 100% | 100% | > 10000 nM | 35% | 84% | Cc1cc(C)nc(C(=O)N2CC[C@@H](C)[C@H](c3cc(C(F)F)nc4ncnn34)C2)c1 [Compound 137] |  |  |  |  |  | 
